Laboratory results from ChEMBL document CHEMBL1128012, “Non-peptide-based inhibitors of human immunodeficiency virus-1 protease” (Bioorg Med Chem Lett, 1994).

Key:
[1] = target: T1, Human immunodeficiency virus type 1 protease (Human immunodeficiency virus 1, UniProt Q72874); assay: Inhibitory activity was evaluated against HIV-1 protease
[2] = target: T1, Human immunodeficiency virus type 1 protease; assay: Inhibitory activity was evaluated against HIV-1 protease; Not Active

| IC50 [1] [µM] | SMILES | IC50 [2] |
| --- | --- | --- |
| 0.7 | O=C1N(Cc2ccc(CBr)cc2)C(Cc2ccccc2)P(=O)(O)C(Cc2ccccc2)N1Cc1ccc(CBr)cc1 (racemic) | – |
| 4.8 | O=C1N(Cc2ccc(CO)cc2)C(Cc2ccccc2)P(=O)(O)C(Cc2ccccc2)N1Cc1ccc(CO)cc1 (stereo not drawn) | – |
| – | COP1(=O)C(Cc2ccccc2)N(Cc2ccc3ccccc3c2)C(=O)N(Cc2ccc3ccccc3c2)C1Cc1ccccc1 (stereo not drawn) | Not Active |
| 21 | O=C1N(Cc2ccccc2)C(Cc2ccccc2)P(=O)(O)C(Cc2ccccc2)N1Cc1ccccc1 (stereo not drawn) | – |
| – | COP1(=O)C(Cc2ccccc2)NC(=O)NC1Cc1ccccc1 (stereo not drawn) | Not Active |
| – | COP1(=O)C(Cc2ccccc2)N(Cc2ccccc2)C(=O)N(Cc2ccccc2)C1Cc1ccccc1 (stereo not drawn) | Not Active |
| 18 | O=C1N(Cc2ccc(CBr)cc2)C(Cc2ccccc2)P(=O)(O)C(Cc2ccccc2)N1Cc1ccc(CBr)cc1 (stereo not drawn) | – |
| – | COP1(=O)C(Cc2ccccc2)N(Cc2ccc(CBr)cc2)C(=O)N(Cc2ccc(CBr)cc2)C1Cc1ccccc1 (stereo not drawn) | Not Active |
| – | COP1(=O)C(Cc2ccccc2)N(Cc2ccc(CO)cc2)C(=O)N(Cc2ccc(CO)cc2)C1Cc1ccccc1 (stereo not drawn) | Not Active |
| 0.24 | O=C1N(Cc2ccc(CO)cc2)C(Cc2ccccc2)P(=O)(O)C(Cc2ccccc2)N1Cc1ccc(CO)cc1 (racemic) | – |
| > 100 | O=C1NC(Cc2ccccc2)P(=O)(O)C(Cc2ccccc2)N1 (racemic) | – |
| > 100 | O=C1NC(Cc2ccccc2)P(=O)(O)C(Cc2ccccc2)N1 (stereo not drawn) | – |
| 0.26 | O=C1N(Cc2ccc3ccccc3c2)C(Cc2ccccc2)P(=O)(O)C(Cc2ccccc2)N1Cc1ccc2ccccc2c1 (racemic) | – |
